Results reported in patent publication US20230227445A1, “BENZAMIDE COMPOUND AND USE THEREOF” (HUMANWELL HEALTHCARE (GROUP) CO., LTD., priority 2020, published 2023).

Columns and labels:
hP2X3 receptor = target: T1, hP2X3 receptor (Homo sapiens, UniProt P56373); assay: Antagonistic activity against hP2X3 receptor by FLIPR calcium flow assay; type: cell-based; conditions: for IC50: human cells stably transfected with hP2X3, agonist α,β-meATP 400 nM; for antagonistic activity against hP2X3 receptor compared with Reference compound 1 (in words): vs Reference compound 1
T1 construct: expressed in transfected cells
T1 sequence (P56373 1-397): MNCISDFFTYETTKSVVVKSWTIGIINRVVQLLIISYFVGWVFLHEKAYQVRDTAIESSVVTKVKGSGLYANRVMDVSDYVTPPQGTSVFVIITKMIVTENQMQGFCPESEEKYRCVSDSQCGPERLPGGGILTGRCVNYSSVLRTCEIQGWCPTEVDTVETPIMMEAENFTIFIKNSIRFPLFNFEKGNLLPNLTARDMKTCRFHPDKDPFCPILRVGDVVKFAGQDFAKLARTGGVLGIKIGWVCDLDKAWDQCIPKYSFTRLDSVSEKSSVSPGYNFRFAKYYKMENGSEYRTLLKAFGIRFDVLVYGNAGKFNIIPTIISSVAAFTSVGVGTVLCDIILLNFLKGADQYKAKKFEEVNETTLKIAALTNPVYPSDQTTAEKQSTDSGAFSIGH
Procedure: The antagonistic activity of hP2X3 antagonists against hP2X3 receptor was evaluated by means of FLIPR Calcium 4 Assay Kit (Molecular Devices, R8141) and FLIPR TETRA instrument (Molecular Devices, 0296) by detecting calcium flow signals. 24h before the experiment, human cells, which had been stably transfected with hP2X3 receptors, were plated on a 384-well plate at 2×10^5 cells/mL, with 50 μL of cell suspension per well, and the plate was cultured in an incubator (37° C., 5% CO2) for 16 h to 24 h. The test compound solution (20 to 50 mM DMSO stock solution) with a concentration of 180 times the required concentration was prepared using DMSO. The stock solution was added to the 384-well plate at 500 nL per well, supplemented with 30 μL of FLIPR Assay buffer (1×HBSS+2 mM CaCl2 20 mM HEPES containing 1.26 mM Ca^2+). The 384-well plate was shaken for 20 to 40 min to mix evenly. An agonist (α, β-meATP) with a concentration of 3 times the required concentration (required final concentration was 400 nM) was prepared with FLIPR Assay buffer, and was added to another 384-well plate at 45 μL per well. The culture plate, on which the cells were plated one day ago, was taken, the cell supernatant was sucked and discarded, each well was added with 30 μL of Dye (FLIPR® Calcium 4 Assay Kit, diluted with FLIPR buffer), and then the plate was incubated for 1h. 15 μL of compound was added to each well of cells (using FLIPR sample injector). After 15 minutes, 22.5 μL of the agonist was added to each well, and the fluorescence signal (exciting light wavelength ranging from 470 nm to 495 nm, and emission wavelength ranging from 515 nm to 575 nm) was detect. […] An inhibition effect curve of the compound was fitted on the software GraphpadPrism6, and the IC50 value was calculated.

[1] = Pharmacokinetic assay in mouse; type: in vivo, ICR mice; conditions: for pharmacokinetic properties in mouse compared with Reference compound 1 and Reference compound 2 (in words): mouse assay, vs Reference compounds 1 and 2; for AUC(0-t) / Cmax / Tmax / half-life: mouse, plasma, po, male ICR mice, intragastric administration, 10 mg/kg; for half-life: read-out: T½ (converted)
Procedure: For a mouse pharmacokinetic assay, male ICR mice (20 g to 25 g) were selected and fasted overnight. Three mice were intragastrically administered with 10 mg/kg of the corresponding compound. The blood of the mice was collected before the administration and at 15 min, 30 min, 1 h, 2 h, 4 h, 8 h, and 24 h after the administration. The blood samples were centrifuged at 4° C. for 6 minutes at 6,800 g, plasma was collected and stored at −80° C.
The supernatant was mixed with 3 times the amount of water, and an appropriate amount of the mixed solution was taken for LC-MS/MS analysis. The primary pharmacokinetic parameters were analyzed by WinNonlin 7.0 software non-atrioventricular model.

rat taste = assay: Taste test in rat (water vs 0.3 mM aqueous quinine solution intake); type: in vivo, SD rats; conditions: for Water/aqueous quinine solution (ratio of water intake to aqueous quinine solution intake): SD rats, 30 mg/kg i.p, 0.3 mM quinine, 15 min supply half an hour after administration; for interference on rat taste compared with Reference compound 1 (in words): vs positive reference compound
Procedure: SD rats were administered with the corresponding compound after 3 days of overnight water prohibition training. Each rat was supplied with 1 bottle of water and 1 bottle of 0.3 mM aqueous quinine solution half an hour after the administration. After 15 min of water supply, the bottles were removed. The intake amount of water and the intake amount of the 0.3 mM aqueous quinine solution were measured, respectively. The taste influence of the compound on SD rats was evaluated based on the difference between the intake amount of water and the intake amount of the aqueous quinine solution.

[2] = test system: histamine/citric acid-stimulated cough in guinea pig; assay: Efficacy test for histamine/citric acid-stimulated cough in guinea pig; type: in vivo; conditions: guinea pigs, nasal drops, 0.17 mg/kg to 1.5 mg/kg, histamine/citric acid stimulation
Procedure: Guinea pigs were adaptively fed for 3 days to 7 days before being grouped. When the body weight of the guinea pigs reached 300 g to 400 g, they were numbered and randomly grouped.
Compounds or an excipient were administered to guinea pigs by nasal drops 0.25 hour to 24 hours before the start of the cough assessment. The administration dose of the test sample ranged from 0.17 mg/kg to 1.5 mg/kg. For the cough assessment, the guinea pigs were placed in a whole-body volume scan box for adaptation, and then, they were provided with histamine nebulization and then citric acid nebulization. […]
(§1) The experimental data was statistically analyzed by one-way ANOVA to analyze and compare data of the various groups. The statistical analysis result p<0.05 was regarded as a significant difference. The t-test was employed for difference comparison between any two.

[3] = Pharmacokinetic assay in canine; type: in vivo, Beagle dogs; conditions: for half-life (in words) / clearance rate (in words) / exposure (in words) / pharmacokinetic characteristics compared with the reference compound (in words): canine; for exposure (in words): oral and intravenous administrations; for pharmacokinetic characteristics compared with the reference compound (in words): vs reference compound; for AUC(0-t) / Cmax / Tmax / half-life / clearance / Vd: dog, plasma, male Beagle dogs; for Vd: read-out: Vz
Procedure: For a canine pharmacokinetic assay, male Beagle dogs (8 kg to 10 kg) were selected and fasted overnight. Three Beagle dogs were intragastrically administered with 5 mg/kg of the corresponding compound. Another 3 Beagle dogs were intravenously administered with 1 mg/kg of the corresponding compound. The blood of the dogs was collected before the administration and at 15 min, 30 min, 1 h, 2 h, 4 h, 8 h, and 24 h after the administration. The blood samples were centrifuged at 4° C. for 6 minutes at 8,000 r/min, plasma was collected and stored at −20° C. […] The supernatant was taken and mixed with 3 times the amount of water, and an appropriate amount of the mixed solution was taken for LC-MS/MS analysis. The primary pharmacokinetic parameters were analyzed by WinNonlin 7.0 software non-atrioventricular model.

[4] = test system: ATP/citric acid-stimulated cough in guinea pig; assay: Efficacy test for ATP/citric acid-stimulated cough in guinea pig; type: in vivo; conditions: guinea pigs, nasal drops, 0.17 mg/kg to 1.5 mg/kg, ATP/citric acid stimulation
Procedure: Guinea pigs were adaptively fed for 3 days to 7 days before being grouped. When the body weight of the guinea pigs reached 300 g to 400 g, they were numbered and randomly grouped. Compounds or an excipient were administered to guinea pigs by nasal drops 0.25 hour to 24 hours before the start of the cough assessment. The administration dose of the test sample ranged from 0.17 mg/kg to 1.5 mg/kg. For the cough assessment, the guinea pigs were placed in a whole-body volume scan box for adaptation, and then provided with ATP nebulization, and a few minutes later, they were provided with citric acid nebulization. The cough times within 15 minutes and the cough latency were recorded from the beginning of citric acid nebulization.
as §1

[5] = Pharmacokinetic assay in rat; type: in vivo, SD rats; conditions: rat, plasma, po, male SD rats, intragastric administration, 10 mg/kg
Procedure: For a rat pharmacokinetic assay, male SD rats (180 g to 240 g) were selected and fasted overnight. Three rats were intragastrically administered with 10 mg/kg of the corresponding compound. The blood of the rats was collected before the administration and at 15 min, 30 min, 1 h, 2 h, 4 h, 8 h, and 24 h after the administration. The blood samples were centrifuged at 4° C. for 6 minutes at 8,000 r/min, and plasma was collected and stored at −20° C. Plasma at each time point was taken, and added with 3 to 5 times the amount of an internal standard-containing acetonitrile solution to mix, and the mixture was vortex mixed for 1 minute, and centrifuged at 4° C. for 10 minutes at 13,000 r/min. The supernatant was taken and mixed with 3 times the amount of water, and an appropriate amount of the mixed solution was taken for LC-MS/MS analysis. The primary pharmacokinetic parameters were analyzed by WinNonlin 7.0 software non-atrioventricular model.

[6] = po, intragastric administration, 5 mg/kg
[7] = intravenous administration, 1 mg/kg

Structure (SMILES)	IC50 (hP2X3 receptor) [nM]	antagonistic activity against hP2X3 receptor compared with Reference compound 1 (in words) (hP2X3 receptor)	pharmacokinetic properties in mouse compared with Reference compound 1 and Reference compound 2 (in words) [1]	AUC(0-t) [1] [ng·h/mL]	Cmax [1] [ng/mL]	Tmax [1] [h]	half-life [1] [h]	Water/aqueous quinine solution (ratio of water intake to aqueous quinine solution intake) (rat taste)	Average cough times within 15 min [2]	Cough inhibition rate vs. solvent [2] [%]	half-life (in words) [3]	clearance rate (in words) ([3]; intravenous administration)	exposure (in words) [3]	pharmacokinetic characteristics compared with the reference compound (in words) [3]	AUC(0-t) [3, 6] [ng·h/mL]	Cmax [3, 6] [ng/mL]	Tmax [3, 6] [h]	half-life [3, 6] [h]	AUC(0-t) [3, 7] [ng·h/mL]	Average cough times within 15 min [4]	also measured
Cc1cnc(-c2cc(O[C@H](C)[C@H](C)O)cc(C(=O)N[C@H](C)c3cnc(C(F)(F)F)nc3)c2F)s1 [Compound I-29, 2-fluoro-5-(((2R, 3S)-3-hydroxybutan-2-yl)oxy)-3-(5-methylthiazol-2-yl)-N—((R)-1-(2-(trifluoromethyl)pyrimidin-5-yl)ethyl)benzamide]	57	better antagonistic activity	significantly improved pharmacokinetic properties	14900	4100	1	2.23	12.0	10.8	59.4	long half-life	low clearance rate	high exposure	better pharmacokinetic characteristics	8730	1160	1	7.26	2010	–	clearance [3, 7]: 7.5 mL/min/kg; half-life [3, 7]: 7.64 h; Vd [3, 7]: 5 L/kg
Cc1cnc(-c2cc(O[C@@H](C)[C@@H](C)O)cc(C(=O)N[C@H](C)c3cnc(C(F)(F)F)nc3)c2F)s1 [Compound I-27, 2-fluoro-5-(((2S, 3R)-3-hydroxybutan-2-yl)oxy)-3-(5-methylthiazol-2-yl)-N—((R)-1-(2-(trifluoromethyl)pyrimidin-5-yl)ethyl)benzamide]	67	better antagonistic activity	significantly improved pharmacokinetic properties	–	–	–	–	29.4	8.9	–	–	–	–	–	–	–	–	–	–	6.3	interference on rat taste compared with Reference compound 1 (in words) (rat taste): significantly less interference on rat taste
Cc1cnc(-c2cc(O[C@@H]3CCOC3)cc(C(=O)N[C@H](C)c3cnc(C(F)(F)F)nc3)c2)s1 [Reference compound 1, reference compound]	–	–	–	–	–	–	–	–	–	–	–	–	–	–	–	–	–	–	–	8.1	AUC(0-t) [5]: 3330 ng·h/mL; Cmax [5]: 417 ng/mL; Tmax [5]: 2 h; half-life ([5]; read-out: T½ (converted)): 4.01 h
Cc1cnc(-c2cc(O[C@H](C)[C@@H](C)O)cc(C(=O)N[C@H](C)c3cnc(C(F)(F)F)nc3)c2F)s1 [Compound I-30, 2-fluoro-5-(((2R, 3R)-3-hydroxybutan-2-yl)oxy)-3-(5-methylthiazol-2-yl)-N—((R)-1-(2-(trifluoromethyl)pyrimidin-5-yl)ethyl)benzamide]	48	better antagonistic activity	significantly improved pharmacokinetic properties	13800	2950	1	2.35	22.9	9.8	63.2	long half-life	low clearance rate	high exposure	better pharmacokinetic characteristics	12600	1030	1	13.4	2820	7.1	interference on rat taste compared with Reference compound 1 (in words) (rat taste): significantly less interference on rat taste; Cough inhibition rate vs. solvent [4]: 64.1%; clearance [3, 7]: 4.33 mL/min/kg; half-life [3, 7]: 13 h; Vd [3, 7]: 4.88 L/kg
